Our source for the Ki and EC50 values is patent US20240398781A1, “SPIROCYCLIC CYCLIC MODULATORS OF CHOLESTEROL BIOSYNTHESIS AND THEIR USE FOR PROMOTING REMYELINATION” (GENENTECH, INC., priority 2021, published 2024).

One assay concerns the target human EBP (Homo sapiens (Human), UniProt Q15125). In words: Competition binding assay (SPA, [3H]-Ifenprodil) to determine compound affinity to EBP. To be noted: [3H]-Ifenprodil 10 nM, HEK293 membrane overexpressing human EBP, Ki=IC50/(1+[L]/Kd); read-out: hEBP SPA Ki. On the procedure: Membrane preparation: To examine compound binding affinity to EBP, human EBP was overexpressed in human embryonic kidney 293 cells. Cell pellet was lysed in 10 times weight binding buffer (50 mM Tris, 5 mM MgCl2, 0.1 mM EDTA, lx protease inhibitor cocktail, pH 7.5) on ice by using a dounce homogenizer. The solution was centrifuged at 25,000 g for 50 min at 4° C. The membrane pellet was re-suspended in binding buffer and run through a 25 5/8 gauge needle. After checking the concentration by Bradford assay, the whole cell membrane solution was adjusted to 20 mg/mL and stored at −80° C.
This binding solution was centrifuged at 400 g for 5 minutes to collect the bead/membrane mixture. After re-suspending the pellet in binding buffer at the same calculated volume with 0.01% BSA (Sigma A1933), the bead/membrane mixture was added in 384-well low-binding surface plate (PerkinElmer Cat #6057480) at 25 μl/well. Radioligand at different concentrations with and without the non-radio-labeled same ligand 5 uM (for nonspecific and total signal, respectively) was added to bring final volume to 50 µl/well with DMSO concentration at 0.1%. At equilibrium (3 hours after ligand addition), radiometric signal CPM was counted by using a Microbeta2 microplate counter (Perkinelmer).
Competition binding assay to determine compound affinity: The same conditions of the radioligand Kd study were used for compound single dose percentage inhibition and equilibrium dissociation constant Ki examinations, except 50 nL compound DMSO stock was pre-added in 384-well low-binding surface plate (PerkinElmer Cat #6057480) by Echo 550 (Labcyte) to reach the final concentration for single dose test at 1 uM, and dose response test from 0.06 nM to 5 uM (8 dose, 5 times dilution). A pre-incubated bead/membrane mixture was added in compound plate at 0.3 mg beads and […] membrane per well. […] At equilibrium (3 hours after ligand addition), radiometric signal was counted as described above. The percentage inhibition of compound at each testing concentration was calculated by normalizing each condition's CPM readout to full block (5 uM non-radiolabeled ligand) and non-block (DMSO) control conditions. Compound binding inhibition IC50 was determined by nonlinear regression fitting of percentage inhibition plot against compound concentration. Compound Ki was calculated from the equation Ki=IC50/(1+[L]/Kd), which [L] was radioligand concentration used in assay. All tests had N bigger or equal to 2.

Assay [1] has as its target human emopamil binding protein and human 7-dehydrocholesterol reductase co-expressing cells (hEBP-DHCR7 membrane) (Homo sapiens (Human), UniProt Q15125). Nature of the assay: Radioligand filter binding assay on hEBP-DHCR7 membrane. To be noted: [3H]-(S)-6-(2-Methyl-3-(6-(trifluoromethyl)pyridin-3-yl)propyl)-2-thia-6-azaspiro[3.4]octane 2,2-dioxide radioligand, HEK293 membrane co-expressing hEBP and hDHCR7. Summed up: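 HEK293 cells transiently co-expressing human EBP and DHCR7 supplied whole-cell membranes (10 μg/well), incubated 3 h at 22 °C with [3H]-labelled spiro-octane dioxide ligand (added at 25 nM) and compound (0.06-5000 nM final, 8 doses, n=2). Bound ligand was collected on PEI-treated GF/B filters and counted by scintillation. IC50 was Hill-fitted from % inhibition and reported as Ki.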

In assay [2] the test system is EBP (zymostenol accumulation in EpiSC-derived OPCs). In words: GC/MS-based sterol profiling, zymostenol accumulation in OPCs. Type of assay: cell-based, mouse. To be noted: Mus musculus, 24 h, EpiSC-derived OPCs, 24 hr treatment, 8 doses from 0.15 nM to 333 nM; read-out: Zymostenol GCMS EC50. Put shortly: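 EpiSC-derived OPCs (100,000/well) were treated 24 h in N2B27 without growth factors. Sterols were TMS-derivatized and analysed by GC/MS full-scan EI, quantified against cholesterol-d7. Zymostenol was normalized to the level after 24 h with 100 nM positive control reference.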

A further assay concerns EpiSC-derived OPCs. In words: In vitro phenotypic screening of OPCs (MBP staining, high-content imaging). To be noted: Mus musculus, 72 h, percentage of MBP+ oligodendrocytes, 3 days, 0.5 nM to 1000 nM; read-out: OPC EC50. The class given is cell-based, mouse. Put shortly: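 EpiSC-derived mouse OPCs seeded at 150,000/cm^2 on laminin in N2B27 without growth factors, treated 3 days at 37° C. with compound (8 points, 1000 nM to 0.5 nM). Fixed cells stained for MBP and DAPI and imaged; percentage of MBP+ oligodendrocytes fitted by Hill equation for EC50.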

Chain of human EBP (Q15125 whole entry): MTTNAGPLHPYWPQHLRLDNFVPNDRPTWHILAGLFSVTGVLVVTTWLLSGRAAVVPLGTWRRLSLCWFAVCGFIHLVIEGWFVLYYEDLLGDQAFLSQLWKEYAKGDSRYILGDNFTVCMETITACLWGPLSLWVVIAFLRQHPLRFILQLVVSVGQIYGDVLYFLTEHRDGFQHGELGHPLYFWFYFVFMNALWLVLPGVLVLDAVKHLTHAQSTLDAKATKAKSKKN
Chain of human emopamil binding protein and human 7-dehydrocholesterol reductase co-expressing cells (hEBP-DHCR7 membrane) (Q15125 whole entry): as above

Consider `CC(C)n1nc(C(F)(F)F)cc1[C@@H]1CC[C@@H](N2CCC3(C2)CS(=O)(=O)C3)C1` (single isomer, unassigned) [10D*], for which the results for the Ki (at human EBP; in assay [1]) were 43 nM and 33.1 nM, respectively. In addition, in assay [2], the EC50 – broadly, the concentration needed to bring the measured effect to its halfway point – is 44 nM.

For `CC(C)n1nc(-c2ccc(C(F)(F)F)nc2)nc1[C@@H]1CC[C@H](N2CCC3(C2)CS(=O)(=O)C3)C1` (single isomer, unassigned) [17A*], the figures for the Ki (at human EBP; in assay [1]) were 22 nM and 24 nM, respectively. In addition, the EC50 in assay [2] amounted to 2.1 nM.

Regarding `CC(C)n1nc(-c2ccc(C(F)(F)F)nc2)nc1[C@@H]1CC[C@@H](N2CCC3(C2)CS(=O)(=O)C3)C1` (single isomer, unassigned) [17C*], at human EBP, the Ki (as a rule, a dissociation constant, usually derived from enzyme kinetics or from competition with a known ligand) turned out to be 18 nM. In addition, the figures for the EC50 (in assay [2]; with EpiSC-derived OPCs) were 2.9 nM and 13 nM, respectively.

Consider `Cc1cc(C(F)(F)F)cnc1[C@H]1CC[C@@H](N2CCC3(C2)CS(=O)(=O)C3)CC1` [Compound 47A, 6-((1s,4s)-4-(3-methyl-5-(trifluoromethyl)pyridin-2-yl)cyclohexyl)-2-thia-6-azaspiro[3.4]octane 2,2-dioxide], for which the Ki (on human EBP; in assay [1]) was 11 nM each time. The EC50 in assay [2] came to 9.1 nM.

Take `CC(C)(C)n1nc(C2CC2)nc1[C@H]1CC[C@@H](N2CCC3(C2)CS(=O)(=O)C3)C1` [Compound 74B, 6-((1R,3S)-3-(1-(tert-butyl)-3-cyclopropyl-1H-1,2,4-triazol-5-yl)cyclopentyl)-2-thia-6-azaspiro[3.4]octane 2,2-dioxide]: in assay [1], the Ki is 494 nM. Moreover, the EC50 in assay [2] was 17 nM; in the assay on EpiSC-derived OPCs it was 76 nM.

For the molecule `O=S1(=O)CC2(CCN([C@H]3CC[C@H](c4ccc(C(F)(F)F)nc4C4CC4)CC3)C2)C1` [Compound 75, 6-((1r,4r)-4-(2-Cyclopropyl-6-(trifluoromethyl)pyridin-3-yl)cyclohexyl)-2-thia-6-azaspiro[3.4]octane 2,2-dioxide], affinity in assay [1] was put at a Ki of 11 nM. The EC50 in assay [2] was determined as 3.2 nM; with EpiSC-derived OPCs, 5 nM.

In assay [1], `O=S1(=O)CC2(CCN([C@H]3CC[C@H](c4ccc(F)c(F)c4)CC3)CC2)C1` [Compound 77A, 7-((1r,4r)-4-(3,4-Difluorophenyl)cyclohexyl)-2-thia-7-azaspiro[3.5]nonane 2,2-dioxide] came in with a Ki of 33 nM. The EC50 turned out to be 5.7 nM in assay [2] and 13 nM in the assay on EpiSC-derived OPCs.

`O=S1(=O)CC2(CCN([C@H]3CC[C@@H](c4ccc(F)c(F)c4)CC3)CC2)C1` [Compound 77B, 7-((1s,4s)-4-(3,4-difluorophenyl)cyclohexyl)-2-thia-7-azaspiro[3.5]nonane 2,2-dioxide] came in with a Ki in assay [1] of 8 nM. Further, the figures for the EC50 (in assay [2]; in the assay on EpiSC-derived OPCs) were 5 nM and 15 nM, respectively.

In assay [1], `O=S1(=O)CC2(CCCN([C@H]3CC[C@H](c4ccc(C(F)(F)F)nc4)CC3)C2)C1` [Compound 79, 6-((1r,4r)-4-(6-(Trifluoromethyl)pyridin-3-yl)cyclohexyl)-2-thia-6-azaspiro[3.5]nonane 2,2-dioxide] had a Ki of 22 nM. Moreover, the EC50 in assay [2] is 9.7 nM; in the assay with EpiSC-derived OPCs it was 36 nM.

For `O=S1(=O)CC2(CCN([C@H]3CC[C@@H](c4ncc(C(F)(F)F)cc4F)CC3)CC2)C1` [Compound 80B, 7-((1s,4s)-4-(3-fluoro-5-(trifluoromethyl)pyridin-2-yl)cyclohexyl)-2-thia-7-azaspiro[3.5]nonane 2,2-dioxide], the Ki in assay [1] amounted to 28 nM. Besides, the EC50 in assay [2] turned out to be 8 nM; in the assay on EpiSC-derived OPCs it was 38 nM.

`O=S1(=O)CC2(CCN([C@H]3CC[C@H](c4cc(C(F)(F)F)ncn4)CC3)C2)C1` [Compound 83, 6-((1r,4r)-4-(6-(Trifluoromethyl)pyrimidin-4-yl)cyclohexyl)-2-thia-6-azaspiro[3.4]octane 2,2-dioxide] had a Ki in assay [1] of 120 nM. The EC50 in assay [2] is 34 nM; in the assay with EpiSC-derived OPCs, 280 nM.

For `CC(C)(C)n1nc(C(F)(F)F)cc1[C@H]1CC[C@@H](N2CCC3(CC2)CS(=O)(=O)C3)CC1` [Compound 85B, 7-((1s,4s)-4-(1-(tert-butyl)-3-(trifluoromethyl)-1H-pyrazol-5-yl)cyclohexyl)-2-thia-7-azaspiro[3.5]nonane 2,2-dioxide], the inhibition constant Ki in assay [1] was 300 nM. Also, the figures for the EC50 (in assay [2]; in the assay on EpiSC-derived OPCs) were 17 nM and 48 nM, respectively.

`O=S1(=O)CC2(CCN([C@H]3CC[C@H](c4cc(C(F)(F)F)ncc4Cl)CC3)C2)C1` [Compound 87, 6-((1r,4r)-4-(5-Chloro-2-(trifluoromethyl)pyridin-4-yl)cyclohexyl)-2-thia-6-azaspiro[3.4]octane 2,2-dioxide]: the Ki in assay [1] was found to be 12 nM. Further, the EC50 came out at 8.8 nM in assay [2] and 33 nM in the assay with EpiSC-derived OPCs.

In assay [1], `O=S1(=O)CC2(CCN([C@H]3CC[C@H](c4ccnc(C(F)(F)F)n4)CC3)C2)C1` [Compound 88, 6-((1r,4r)-4-(2-(Trifluoromethyl)pyrimidin-4-yl)cyclohexyl)-2-thia-6-azaspiro[3.4]octane 2,2-dioxide] returned a Ki of 73 nM. The values for the EC50 (in assay [2]; in the assay with EpiSC-derived OPCs) were 16 nM and 110 nM, respectively.

In assay [1], `O=S1(=O)CCC2(CCN([C@H]3CC[C@H](c4ccc(C(F)(F)F)nc4)CC3)C2)CC1` [Compound 95A, 2-((1r,4r)-4-(6-(Trifluoromethyl)pyridin-3-yl)cyclohexyl)-8-thia-2-azaspiro[4.5]decane 8,8-dioxide] yielded a Ki of 710 nM. The EC50 in assay [2] amounted to 170 nM; in the assay on EpiSC-derived OPCs, 520 nM.

Consider `O=S1(=O)CCC2(CCN([C@H]3CC[C@@H](c4ccc(C(F)(F)F)nc4)CC3)C2)CC1` [Compound 95B, 2-((1s,4s)-4-(6-(trifluoromethyl)pyridin-3-yl)cyclohexyl)-8-thia-2-azaspiro[4.5]decane 8,8-dioxide], for which affinity in assay [1] was put at a Ki of 170 nM. The results for the EC50 (in assay [2]; with EpiSC-derived OPCs) were 22 nM and 43 nM, respectively.
